Assays:
isolated rat aorta [1] = experiment: Test A: activity against contractions induced by low K+ concentrations (20 mM K+) in the isolated rat aorta; assay type: cell-based; conditions: concentration reducing the contraction induced by 20 mM K⁺ by 90%; rat thoracic aorta strips denuded of endothelium, Krebs solution, cumulative concentrations; read-out: Activity Test A EC₉₀
Experimental: (§1) The test methods used were adapted from those described by Winslow et al [Eur.J.Pharmacol., 131, 219-228 (1986)] and Karaki [J.Pharmacol. Methods, 18, 1-21 (1987)] for differentiating vaso-relaxant activity.
Test A : Activity against contractions induced by low K⁺ concentrations in the isolated rat aorta
Thoracic aorta was removed from rats and transverse strips, denuded of endothelium, were suspended in a bath containing Krebs solution. The tension was recorded and a contraction induced by addition of 20 mM K⁺ (potassium ion) to the bathing solution. The test compound was added to the bath as a solution in increasing cumulative concentration. The concentration in the bathing solution of the test compound which reduced the K⁺-induced contraction by 90% was determined and expressed in µM as the effective concentration (EC₉₀), given in Table I.

isolated rat aorta [2] = experiment: Test B: activity against contractions induced by high K+ concentrations (60 mM K+) in isolated rat aorta; assay type: cell-based; conditions: contraction induced by 60 mM K⁺; rat thoracic aorta strips denuded of endothelium, cumulative addition; read-out: concentration in the bath reducing the K⁺-induced contraction by 90%
Experimental: as §1
Test B : Activity against contractions induced by high K⁺ concentrations in isolated rat aorta
The test method was as in Test A except that contractions were induced by addition of 60 mM K⁺ to the bathing solution. The cumulative addition of solutions of the test compound was conducted and the concentration in the bath reducing the K⁺-induced contraction by 90% was greater than 30µM for Compounds C, D, E, F, I, J and K, and much greater than 30µM for Compound A. Table I

Structure (SMILES) | EC90 (isolated rat aorta [1]) [µM] | IC90 (isolated rat aorta [2]) [µM]
CNC(=S)C1(c2ccccc2)CCCCC1=O (racemic) [Compound A, (±)-N-methyl-2-oxo-1-phenylcyclohexanecarbothioamide] | 29 | > 30
CNC(=S)C1(c2ccccc2)CCCCC1=NO (racemic) [Compound C, (±)-anti-N-methyl-2-hydroxyimino-1-phenylcyclohexanecarbothioamide] | > 30 | > 30
CNC(=S)C1(c2ccccc2)CCCCC1=NOC (racemic) [Compound D, (±)-anti-N-methyl-2-methoxyimino-1-phenylcyclohexanecarbothioamide] | 20 | > 30
CNC(=S)C1(c2cccc([N+](=O)[O-])c2)CCCCC1=O (racemic) [Compound K, (±)-N-methyl-2-oxo-1-(3-nitrophenyl)cyclohexanecarbothioamide] | 0.7 | > 30

Other lines, results leading:

EC90 (isolated rat aorta [1]) [µM] | IC90 (isolated rat aorta [2]) [µM] | Structure (SMILES)
12 | > 30 | CNC(=S)C1(c2ccc(Cl)cc2)CCCCC1=O (racemic) [E, (±)-N-methyl-2-oxo-1-(4-chlorophenyl)cyclohexanecarbothioamide]
0.9 | > 30 | CNC(=S)C1(c2cccc(C(F)(F)F)c2)CCCCC1=O (racemic) [F, (±)-N-methyl-2-oxo-1-(3-trifluoromethylphenyl)cyclohexanecarbothioamide]
0.6 |  | CNC(=S)C1(c2ccccc2)CCCCC1=NOCc1ccc(F)cc1 (racemic) [H, (±)-anti-N-methyl-2-(4-fluorobenzyloxyimino)-1-phenylcyclohexanecarbothioamide]
2 | > 30 | CNC(=S)C1(c2ccc3ccccc3c2)CCCCC1=O (racemic) [I, (±)-N-methyl-2-oxo-1-(2-naphthyl)cyclohexanecarbothioamide]
0.4 | > 30 | CNC(=S)C1(c2ccc(Cl)c(Cl)c2)CCCCC1=O (racemic) [J, (±)-N-methyl-2-oxo-1-(3,4-dichlorophenyl)cyclohexanecarbothioamide]
